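In this assay, cells in 96-well plates receive the compound at five concentrations for 48 hours. Endpoints are linearly interpolated between the surrounding concentrations. TGI marks complete inhibition of growth.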
Key:
Test in all cases: NCI tumour cell line growth inhibition, 48 h
HCT-15 colon = tested on: HCT-15 colon
XF 498 CNS = tested on: XF 498 CNS
LOX IMVI melanoma = tested on: LOX IMVI melanoma
SN12C renal = tested on: SN12C renal
RPMI-8226 leukemia = tested on: RPMI-8226 leukemia
SK-MEL-28 melanoma = tested on: SK-MEL-28 melanoma
SNB-19 CNS = tested on: SNB-19 CNS
A498 renal = tested on: A498 renal
OVCAR-4 ovarian = tested on: OVCAR-4 ovarian
SF-539 CNS = tested on: SF-539 CNS
EKVX NSCLC = tested on: EKVX NSCLC
CAKI-1 renal = tested on: CAKI-1 renal
SW-620 colon = tested on: SW-620 colon
HOP-92 NSCLC = tested on: HOP-92 NSCLC
K-562 leukemia = tested on: K-562 leukemia
MOLT-4 leukemia = tested on: MOLT-4 leukemia
SF-295 CNS = tested on: SF-295 CNS
COLO 205 colon = tested on: COLO 205 colon
SNB-78 CNS = tested on: SNB-78 CNS
MCF7 breast = tested on: MCF7 breast
DMS 273 small cell lung = tested on: DMS 273 small cell lung
DMS 114 small cell lung = tested on: DMS 114 small cell lung
DLD-1 colon = tested on: DLD-1 colon
U251 CNS = tested on: U251 CNS
NCI/ADR-RES ovarian = tested on: NCI/ADR-RES ovarian
SK-MEL-5 melanoma = tested on: SK-MEL-5 melanoma
SF-268 CNS = tested on: SF-268 CNS
CCRF-CEM leukemia = tested on: CCRF-CEM leukemia
OVCAR-5 ovarian = tested on: OVCAR-5 ovarian
P388 leukemia = tested on: P388 leukemia
P388/ADR leukemia = tested on: P388/ADR leukemia
HL-60(TB) leukemia = tested on: HL-60(TB) leukemia
HOP-18 NSCLC = tested on: HOP-18 NSCLC
SK-OV-3 ovarian = tested on: SK-OV-3 ovarian
HOP-62 NSCLC = tested on: HOP-62 NSCLC
UACC-257 melanoma = tested on: UACC-257 melanoma
IGROV1 ovarian = tested on: IGROV1 ovarian
HCT-116 colon = tested on: HCT-116 colon
SK-MEL-2 melanoma = tested on: SK-MEL-2 melanoma
MALME-3M melanoma = tested on: MALME-3M melanoma
NCI-H23 lung = tested on: NCI-H23 lung
NCI-H522 lung = tested on: NCI-H522 lung
NCI-H226 lung = tested on: NCI-H226 lung
HT29 colon = tested on: HT29 colon
OVCAR-8 ovarian = tested on: OVCAR-8 ovarian
OVCAR-3 ovarian = tested on: OVCAR-3 ovarian
SNB-75 CNS = tested on: SNB-75 CNS
UO-31 renal = tested on: UO-31 renal
UACC-62 melanoma = tested on: UACC-62 melanoma
RXF 393 renal = tested on: RXF 393 renal
NCI-H460 lung = tested on: NCI-H460 lung
KM12 colon = tested on: KM12 colon
SN12K1 renal = tested on: SN12K1 renal
A549 NSCLC = tested on: A549 NSCLC
KM20L2 colon = tested on: KM20L2 colon
M19-MEL melanoma = tested on: M19-MEL melanoma
HCC-2998 colon = tested on: HCC-2998 colon

For `O=c1oc2cc(O)ccc2c2oc3cc(O)ccc3c12`, the TGI (HCT-15 colon) was > 125 µM, the TGI (XF 498 CNS) was > 19.8 µM and the TGI (LOX IMVI melanoma) was > 102 µM. The TGI (SN12C renal) was > 88.7 µM, the TGI (RPMI-8226 leukemia) was > 125 µM and the TGI (SK-MEL-28 melanoma) was > 125 µM. The TGI (SNB-19 CNS) was 91.7 µM, the TGI (A498 renal) was 3.4 µM and the TGI (OVCAR-4 ovarian) was > 125 µM. For the same molecule, the TGI (SF-539 CNS) was 122 µM, the TGI (EKVX NSCLC) was > 125 µM and the TGI (CAKI-1 renal) was > 107 µM. For the same molecule, the TGI (SW-620 colon) was > 125 µM, the TGI (HOP-92 NSCLC) was > 125 µM and the TGI (K-562 leukemia) was > 125 µM. The TGI (MOLT-4 leukemia) was 83.3 µM, the TGI (SF-295 CNS) was > 125 µM and the TGI (COLO 205 colon) was 72.5 µM. For the same molecule, the TGI (SNB-78 CNS) was > 86.3 µM, the TGI (MCF7 breast) was 122 µM and the TGI (DMS 273 small cell lung) was > 121 µM. For the same molecule, the TGI (DMS 114 small cell lung) was > 12.5 µM, the TGI (DLD-1 colon) was > 125 µM and the TGI (U251 CNS) was 93.5 µM. The TGI (NCI/ADR-RES ovarian) was > 125 µM, the TGI (SK-MEL-5 melanoma) was 69.9 µM and the TGI (SF-268 CNS) was > 82.5 µM. For the same molecule, the TGI (CCRF-CEM leukemia) was > 125 µM, the TGI (OVCAR-5 ovarian) was > 125 µM and the TGI (P388 leukemia) was > 125 µM. The TGI (P388/ADR leukemia) was > 125 µM, the TGI (HL-60(TB) leukemia) was > 125 µM and the TGI (HOP-18 NSCLC) was > 125 µM. The TGI (SK-OV-3 ovarian) was 70.8 µM, the TGI (HOP-62 NSCLC) was 54.1 µM and the TGI (UACC-257 melanoma) was 124 µM. For the same molecule, the TGI (IGROV1 ovarian) was > 125 µM, the TGI (HCT-116 colon) was 70.2 µM and the TGI (SK-MEL-2 melanoma) was > 125 µM. The TGI (MALME-3M melanoma) was > 125 µM, the TGI (NCI-H23 lung) was > 125 µM and the TGI (NCI-H522 lung) was 31.9 µM. For the same molecule, the TGI (NCI-H226 lung) was > 125 µM, the TGI (HT29 colon) was > 125 µM and the TGI (OVCAR-8 ovarian) was > 125 µM. For the same molecule, the TGI (OVCAR-3 ovarian) was 114 µM, the TGI (SNB-75 CNS) was > 125 µM and the TGI (UO-31 renal) was > 117 µM. The TGI (UACC-62 melanoma) was > 125 µM, the TGI (RXF 393 renal) was 124 µM and the TGI (NCI-H460 lung) was > 113 µM. For the same molecule, the TGI (KM12 colon) was > 125 µM, the TGI (SN12K1 renal) was > 112 µM and the TGI (A549 NSCLC) was 125 µM. The TGI (KM20L2 colon) was 123 µM, the TGI (M19-MEL melanoma) was > 125 µM and the TGI (HCC-2998 colon) was > 118 µM.

— PubChem BioAssay (NCI)
